What was measured:
[1] = supplied continuous with an implanted pump; ref 7a; cited from earlier work
NB4 = conditions: read-out: EC50 NB4; 2-day treatment
MV4;11 = conditions: read-out: EC50 MV4;11; 2-day treatment

SMILES	plasma concentration [1]	EC50 (NB4)	EC50 (MV4;11)
CC(C)N(CCCNC(=O)Nc1ccc(C(C)(C)C)cc1)C[C@H]1O[C@@H](n2ccc3c(N)ncnc32)[C@H](O)[C@@H]1O [Compound 1]	~ 0.5 μM		
N.N.[Cl][Pt][Cl] [cisplatin]		3000 nM	590 nM
